Drawing on US8450313B2, “2,3-diaryl- or heteroaryl-substituted 1,1,1-trifluoro-2-hydroxypropyl compounds” (Hoffmann-La Roche Inc., priority 2009, dated 2013), this text covers Ki for 20 compounds.

One may read the pKi as the Ki on a negative log10 scale, so that one unit is a factor of ten.

SMILES strings stand for the structures. pKi: −log10 of the molar value.

The target in this assay is T1, full length human recombinant glucocorticoid receptor (Homo sapiens, UniProt P04150).
T1 construct: It contains some partially purified full length human recombinant glucocorticoid receptor; purchased Panvera/Invitrogen PV4302
T1 sequence (P04150 1-777): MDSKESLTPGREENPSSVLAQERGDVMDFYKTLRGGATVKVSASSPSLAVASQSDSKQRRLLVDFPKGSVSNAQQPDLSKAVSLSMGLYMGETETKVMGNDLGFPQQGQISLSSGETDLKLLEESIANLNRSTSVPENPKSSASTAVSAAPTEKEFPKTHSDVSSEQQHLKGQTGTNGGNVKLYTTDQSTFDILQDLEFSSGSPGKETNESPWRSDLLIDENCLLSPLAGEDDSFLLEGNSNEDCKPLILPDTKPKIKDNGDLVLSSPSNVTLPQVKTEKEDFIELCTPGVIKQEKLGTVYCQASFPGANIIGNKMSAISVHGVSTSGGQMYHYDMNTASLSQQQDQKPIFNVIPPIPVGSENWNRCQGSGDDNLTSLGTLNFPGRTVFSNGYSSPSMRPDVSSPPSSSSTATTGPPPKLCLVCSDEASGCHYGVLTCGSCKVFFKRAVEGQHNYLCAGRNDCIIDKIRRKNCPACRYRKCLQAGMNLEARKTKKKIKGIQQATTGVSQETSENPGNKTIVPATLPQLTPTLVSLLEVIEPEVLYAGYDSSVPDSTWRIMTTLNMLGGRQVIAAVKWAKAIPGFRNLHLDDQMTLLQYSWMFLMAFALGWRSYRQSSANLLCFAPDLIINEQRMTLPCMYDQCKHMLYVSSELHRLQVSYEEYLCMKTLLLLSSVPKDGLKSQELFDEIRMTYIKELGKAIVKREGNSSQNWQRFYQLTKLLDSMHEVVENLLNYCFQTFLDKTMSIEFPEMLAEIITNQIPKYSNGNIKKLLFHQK
The assay can be described thus: Glucocorticoid Receptor Binding Assay (Glucocorticoid Receptor Competitor Assay far red kit, fluorescence polarization). To be noted: competition with fluorescent GR ligand Fluormone GS Far Red, 3 hours at 22° C., pH 7.4; Ki calculated from IC50 by Cheng-Prusoff. The method, boiled down:
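Fluorescence polarization competition with partially purified full-length human recombinant GR, stabilizing peptide and Fluormone GS Far Red tracer in screening buffer pH 7.4; 3 hours at 22° C in the dark, read at 610–660 nm. IC50 from sigmoidal fit; Ki by Cheng-Prusoff.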

For the compound `C[C@H](c1ccc(-c2ccc(C(=O)O)cc2Cl)cc1Cl)[C@@](O)(c1ccc2c(c1)n(C)c(=O)n2C)C(F)(F)F` (stereo in doubt) [Example 81, 2,3′-Dichloro-4′-[2-(1,3-dimethyl-2-oxo-2,3-dihydro-1H-benzoimidazol-5-yl)-3,3,3-trifluoro-2-hydroxy-1-methyl-propyl]-biphenyl-4-carboxylic acid], the negative-log Ki (pKi) was 8.85.
Turning to `C[C@H](c1ccc(-c2ccc(CC(=O)O)cc2)cc1Cl)[C@@](O)(c1ccc2c(c1)n(C)c(=O)n2C)C(F)(F)F` (stereo in doubt) [Example 82, {3′-Chloro-4′-[2-(1,3-dimethyl-2-oxo-2,3-dihydro-1H-benzoimidazol-5-yl)-3,3,3-trifluoro-2-hydroxy-1-methyl-propyl]-biphenyl-4-yl}-acetic acid], the pKi is 8.15.
For the compound `C[C@H](c1ccc(-c2cccc(CC(=O)O)c2)cc1Cl)[C@@](O)(c1ccc2c(c1)n(C)c(=O)n2C)C(F)(F)F` (stereo in doubt) [Example 83, {3′-Chloro-4′-[2-(1,3-dimethyl-2-oxo-2,3-dihydro-1H-benzoimidazol-5-yl)-3,3,3-trifluoro-2-hydroxy-1-methyl-propyl]-biphenyl-3-yl}-acetic acid], the negative logarithm of the Ki (pKi) is 8.66.
With `C[C@@H](c1ccc(Oc2ccc(C(=O)O)c(F)c2)cc1Cl)[C@](O)(c1ccc2c(c1)n(C)c(=O)n2C)C(F)(F)F` (stereo in doubt) [Example 88, 4-{3-Chloro-4-[2-(1,3-dimethyl-2-oxo-2,3-dihydro-1H-benzoimidazol-5-yl)-3,3,3-trifluoro-2-hydroxy-1-methyl-propyl]-phenoxy}-2-fluoro-benzoic acid], the negative logarithm of the Ki (pKi) was 9.15.
Take `C[C@@H](c1ccc(Oc2ccc(CC(=O)O)cc2)cc1Cl)[C@](O)(c1ccc2c(c1)n(C)c(=O)n2C)C(F)(F)F` (stereo in doubt) [Example 89, (4-{3-Chloro-4-[2-(1,3-dimethyl-2-oxo-2,3-dihydro-1H-benzoimidazol-5-yl)-3,3,3-trifluoro-2-hydroxy-1-methyl-propyl]-phenoxy}-phenyl)-acetic acid]: the pKi is 8.96.
For `C[C@@H](c1ccc(Oc2ccc(C(=O)O)c(Cl)c2)cc1Cl)[C@](O)(c1ccc2c(c1)n(C)c(=O)n2C)C(F)(F)F` (stereo in doubt) [Example 90, 2-Chloro-4-{3-chloro-4-[2-(1,3-dimethyl-2-oxo-2,3-dihydro-1H-benzoimidazol-5-yl)-3,3,3-trifluoro-2-hydroxy-1-methyl-propyl]-phenoxy}-benzoic acid] the value was 9.40.
The figure for `C[C@H](c1ccc(Oc2ccc(C(=O)O)c(Cl)n2)cc1Cl)[C@@](O)(c1ccc2c(c1)n(C)c(=O)n2C)C(F)(F)F` (stereo in doubt) [Example 92, 2-Chloro-6-{3-chloro-4-[2-(1,3-dimethyl-2-oxo-2,3-dihydro-1H-benzoimidazol-5-yl)-3,3,3-trifluoro-2-hydroxy-1-methyl-propyl]-phenoxy}-nicotinic acid] is 9.22.
For `C[C@H](c1ccc(Oc2ccc(OCC(=O)O)cc2)cc1Cl)[C@@](O)(c1ccc2c(c1)n(C)c(=O)n2C)C(F)(F)F` (stereo in doubt) [Example 93, (4-{3-Chloro-4-[2-(1,3-dimethyl-2-oxo-2,3-dihydro-1H-benzoimidazol-5-yl)-3,3,3-trifluoro-2-hydroxy-1-methyl-propyl]-phenoxy}-phenoxy)-acetic acid] the value was 9.52; for `C[C@H](c1ccc(Oc2cccc(OCC(=O)O)c2)cc1Cl)[C@@](O)(c1ccc2c(c1)n(C)c(=O)n2C)C(F)(F)F` (stereo in doubt) [Example 94, (3-{3-Chloro-4-[2-(1,3-dimethyl-2-oxo-2,3-dihydro-1H-benzoimidazol-5-yl)-3,3,3-trifluoro-2-hydroxy-1-methyl-propyl]-phenoxy}-phenoxy)-acetic acid], 9.52; for `C[C@H](c1ccc(Oc2ccc(C(=O)O)nc2)cc1Cl)[C@@](O)(c1ccc2c(c1)n(C)c(=O)n2C)C(F)(F)F` (stereo in doubt) [Example 95, 5-{3-Chloro-4-[2-(1,3-dimethyl-2-oxo-2,3-dihydro-1H-benzoimidazol-5-yl)-3,3,3-trifluoro-2-hydroxy-1-methyl-propyl]-phenoxy}-pyridine-2-carboxylic acid], 8.28.
Consider `C[C@H](c1ccc(Oc2ccc(Cl)cc2C(=O)O)cc1Cl)[C@@](O)(c1ccc2c(c1)n(C)c(=O)n2C)C(F)(F)F` (stereo in doubt) [Example 100, 5-Chloro-2-{3-chloro-4-[2-(1,3-dimethyl-2-oxo-2,3-dihydro-1H-benzoimidazol-5-yl)-3,3,3-trifluoro-2-hydroxy-1-methyl-propyl]-phenoxy}-benzoic acid], for which the negative logarithm of the Ki (pKi) was 8.72.
For the compound `C[C@@H](c1ccc(Oc2ccc(C(=O)O)cn2)cc1Cl)[C@](O)(c1ccc2c(c1)n(C)c(=O)n2C)C(F)(F)F` (stereo in doubt) [Example 101, 6-{3-Chloro-4-[2-(1,3-dimethyl-2-oxo-2,3-dihydro-1H-benzoimidazol-5-yl)-3,3,3-trifluoro-2-hydroxy-1-methyl-propyl]-phenoxy}-nicotinic acid], the pKi is 8.96.
The figure for `C[C@H](c1ccc(Oc2ncc(Cl)cc2C(=O)O)cc1Cl)[C@@](O)(c1ccc2c(c1)n(C)c(=O)n2C)C(F)(F)F` (stereo in doubt) [Example 104, 5-Chloro-2-{3-chloro-4-[2-(1,3-dimethyl-2-oxo-2,3-dihydro-1H-benzoimidazol-5-yl)-3,3,3-trifluoro-2-hydroxy-1-methyl-propyl]-phenoxy}-nicotinic acid] is 8.80; for `C[C@H](c1ccc(Oc2ncccc2C(=O)O)cc1Cl)[C@@](O)(c1ccc2c(c1)n(C)c(=O)n2C)C(F)(F)F` (stereo in doubt) [Example 105, 2-{3-Chloro-4-[2-(1,3-dimethyl-2-oxo-2,3-dihydro-1H-benzoimidazol-5-yl)-3,3,3-trifluoro-2-hydroxy-1-methyl-propyl]-phenoxy}-nicotinic acid] it is 7.83.
The figure for `C[C@H](c1ccc(Oc2ncc(C(=O)O)cc2Cl)cc1Cl)[C@@](O)(c1ccc2c(c1)n(C)c(=O)n2C)C(F)(F)F` (stereo in doubt) [Example 107, 5-Chloro-6-{3-chloro-4-[2-(1,3-dimethyl-2-oxo-2,3-dihydro-1H-benzoimidazol-5-yl)-3,3,3-trifluoro-2-hydroxy-1-methyl-propyl]-phenoxy}-nicotinic acid] is 9.40; for `C[C@H](c1ccc(Oc2cc(Cl)ncc2C(=O)O)cc1Cl)[C@@](O)(c1ccc2c(c1)n(C)c(=O)n2C)C(F)(F)F` (stereo in doubt) [Example 108, 6-Chloro-4-{3-chloro-4-[2-(1,3-dimethyl-2-oxo-2,3-dihydro-1H-benzoimidazol-5-yl)-3,3,3-trifluoro-2-hydroxy-1-methyl-propyl]-phenoxy}-nicotinic acid] it is 7.98.
For `C[C@H](c1ccc(Oc2cc(Cl)c(C(=O)O)cn2)cc1Cl)[C@@](O)(c1ccc2c(c1)n(C)c(=O)n2C)C(F)(F)F` (stereo in doubt) [Example 109, 4-Chloro-6-{3-chloro-4-[2-(1,3-dimethyl-2-oxo-2,3-dihydro-1H-benzoimidazol-5-yl)-3,3,3-trifluoro-2-hydroxy-1-methyl-propyl]-phenoxy}-nicotinic acid] the value was 8.96; for `C[C@H](c1ccc(Oc2cc(C(=O)O)c(C(F)(F)F)cn2)cc1Cl)[C@@](O)(c1ccc2c(c1)n(C)c(=O)n2C)C(F)(F)F` (stereo in doubt) [Example 110, 2-{3-Chloro-4-[2-(1,3-dimethyl-2-oxo-2,3-dihydro-1H-benzoimidazol-5-yl)-3,3,3-trifluoro-2-hydroxy-1-methyl-propyl]-phenoxy}-5-trifluoromethyl-isonicotinic acid], 8.68; for `C[C@H](c1ccc(Oc2nc(C(F)(F)F)ccc2C(=O)O)cc1Cl)[C@@](O)(c1ccc2c(c1)n(C)c(=O)n2C)C(F)(F)F` (stereo in doubt) [Example 111, 2-{3-Chloro-4-[2-(1,3-dimethyl-2-oxo-2,3-dihydro-1H-benzoimidazol-5-yl)-3,3,3-trifluoro-2-hydroxy-1-methyl-propyl]-phenoxy}-6-trifluoromethyl-nicotinic acid], 7.44.
Take `C[C@H](c1ccc(Oc2ccc(C(F)(F)F)c(C(=O)O)n2)cc1Cl)[C@@](O)(c1ccc2c(c1)n(C)c(=O)n2C)C(F)(F)F` (stereo in doubt) [Example 112, 6-{3-Chloro-4-[2-(1,3-dimethyl-2-oxo-2,3-dihydro-1H-benzoimidazol-5-yl)-3,3,3-trifluoro-2-hydroxy-1-methyl-propyl]-phenoxy}-3-trifluoromethyl-pyridine-2-carboxylic acid]: the negative logarithm of the Ki (pKi) is 7.58.
